Each structure is given as a SMILES string. Like-named read-outs stand apart in the source and are kept apart here.

For assay [1], the target named is recombinant human Mcl-1 (residues 171-327) / Bim interaction (Homo sapiens (Human), UniProt Q07820). Nature of the assay: biochemical. Type of assay: binding. To be noted: read-out: Mcl-1 HTRF IC50. For orientation: Time-resolved FRET reads energy transfer from a long-lived donor to a nearby acceptor.
The subject of assay [2] is human multiple myeloma cell line, OPM-2. Nature of the assay: Cell viability assay (OPM-2 10 FBS), CellTiter-Glo. Type of assay: cell-based. In a few lines:
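IC50 values come from 4-parameter logistic fits of luminescence signals reflecting cell viability. Treatment lasted 16 h at 37 °C in complete medium with 10% FBS, starting from 3000 cells/well.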
A general note: In ATP-based viability assays light output follows the ATP content of the culture.

The mark [3] stands for this setting: 0.1 nM Mcl-1(171-327), 0.05 nM biotin-Bim (51-76).
The mark [4] stands for this setting: read-out: OPM-2 10% FBS IC50 IP, OPM-2 cells, 10% FBS, 16 h incubation.
The mark [5] stands for this setting: TR-FRET, Mcl-1(171-327) / biotin-Bim (51-76).
Setting [6] is: Homo sapiens, OPM-2, 16 h, read-out: OPM-2 10% FBS IC50 IP, OPM-2 cells, 10% FBS, 16 h, CellTiter-Glo.
Where [7] appears, read: Homo sapiens, OPM-2, 16 h, read-out: OPM-2 10% FBS IC50 IP, OPM-2 cells, 10% FBS, 16 h incubation.
The mark [8] stands for this setting: read-out: OPM-2 10% FBS IC50 IP, OPM-2 cells, 10% FBS, 16 h, CellTiter-Glo.

Sequence of recombinant human Mcl-1 (residues 171-327) / Bim interaction (Q07820 171-327): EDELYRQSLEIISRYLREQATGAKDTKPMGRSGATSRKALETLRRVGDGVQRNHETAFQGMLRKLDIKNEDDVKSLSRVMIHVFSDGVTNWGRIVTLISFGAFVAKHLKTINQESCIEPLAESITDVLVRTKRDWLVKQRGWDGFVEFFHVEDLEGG

For the molecule `CO[C@@]1(CN2CCCN(C(C)C)CC2)/C=C/C[C@H](C)[C@@H](C)S(=O)(=O)NC(=O)c2ccc3c(c2)N(C[C@@H]2CC[C@H]21)C[C@@]1(CCCc2cc(Cl)ccc21)CO3` [Example 331], the IC50 (commonly the concentration that inhibits the measured activity by half) in assay [1] (setting [3]) came out at 0.184 nM; in assay [2] (setting [4]) it was 230 nM.

As for `CO[C@]1(CCN2CCCCC2)/C=C/C[C@H](C)[C@@H](C)S(=O)(=O)NC(=O)c2ccc3c(c2)N(C[C@@H]2CC[C@H]21)C[C@@]1(CCCc2cc(Cl)ccc21)CO3` [Example 100449, (1S,3′R,6′R,7′R,8′E,11′S,12′R)-6-chloro-7′-methoxy-11′,12′-dimethyl-7′-(2-(1-piperidinyl)ethyl)-3,4-dihydro-2H,15′H-spiro[naphthalene-1,22′-[20]oxa[13]thia[1,14]diazatetracyclo [14.7.2.0~3,6~.0~19,24~]pentacosa[8,16,18,24]tetraen]-15′-one 13′,13′-dioxide], the IC50 in assay [1] (setting [5]) worked out at 0.071 nM; in assay [2] (setting [6]), 171 nM.

Consider `COC(=O)c1nc(C[C@]2(OC)/C=C/C[C@H](C)[C@@H](C)S(=O)(=O)NC(=O)c3ccc4c(c3)N(C[C@@H]3CC[C@H]32)C[C@@]2(CCCc3cc(Cl)ccc32)CO4)oc1C` [Example 100583, methyl 2-(((1S,3′R,6′R,7′S,8′E,11′S,12′R)-6-chloro-7′-methoxy-11′,12′-dimethyl-13′,13′-dioxido-15′-oxo-3,4-dihydro-2H-spiro[naphthalene-1,22′-[20]oxa[13]thia[1,14]diazatetracyclo [14.7.2.0~3,6~.0~19,24~]pentacosa[8,16,18,24]tetraen]-7′-yl)methyl)-5-methyl-1,3-oxazole-4-carboxylate], for which the IC50 in assay [1] (setting [5]) stood at 0.124 nM; in assay [2] (setting [6]), 411 nM.

With `CO[C@]1(CN2CC(C)(C#N)C2)/C=C/C[C@H](C)[C@@H](C)S(=O)(=O)NC(=O)c2ccc3c(c2)N(C[C@@H]2CC[C@H]21)C[C@@]1(CCCc2cc(Cl)ccc21)CO3` [Example 71, 1-(((1S,3′R,6′R,7′R,8′E,11′S, 12′R)-6-chloro-7′-methoxy-11′,12′-dimethyl-13′,13′-dioxido-15′-oxo-3,4-dihydro-2H-spiro[naphthalene-1,22′-[20]oxa[13]thia[1,14]diazatetracyclo [14.7.2.0~3,6~.0~19,24~]pentacosa[8,16,18,24]tetraen]-7′-yl)methyl)-3-methyl-3-azetidinecarbonitrile], the concentration for half-maximal inhibition (IC50) turned out to be 0.371 nM in assay [1] (setting [3]) and 1140 nM in assay [2] (setting [7]).

As for `C[C@@H]1[C@@H](C)CCC[C@@](O)([C@@H]2CCN(C)C2=O)[C@@H]2CC[C@H]2CN2C[C@@]3(CCCc4cc(Cl)ccc43)COc3ccc(cc32)C(=O)NS1(=O)=O` [Example 100203, (1S,3′R,6′R,7′S,11′S,12′R)-6-chloro-7′-hydroxy-11′,12′-dimethyl-7′-((3S)-1-methyl-2-oxo-3-pyrrolidinyl)-3,4-dihydro-2H,15′H-spiro[naphthalene-1,22′-[20]oxa[13]thia[1,14]diazatetracyclo [14.7.2.0~3,6~.0~19,24~]pentacosa[16,18,24]trien]-15′-one 13′,13′-dioxide], the values for the IC50 in assay [1] (setting [5]) and in assay [2] (setting [8]) were 0.285 nM and 491 nM, respectively.

Take `CO[C@@]1(CN2CCN3CCOC[C@@H]3C2)/C=C/C[C@H](C)[C@@H](C)S(=O)(=O)NC(=O)c2ccc3c(c2)N(C[C@@H]2CC[C@H]21)C[C@@]1(CCCc2cc(Cl)ccc21)CO3` [Example 56, (1S,3′R,6′R,7′S,8′E,11′S,12′R)-6-chloro-7′-((9aS)-hexahydropyrazino[2,1-c][1,4]oxazin-8(1H)-ylmethyl)-7′-methoxy-11′,12′-dimethyl-3,4-dihydro-2H,15′H-spiro[naphthalene-1,22′-[20]oxa[13]thia[1,14]diazatetracyclo [14.7.2.0~3,6~.0~19,24~]pentacosa[8,16,18,24]tetraen]-15′-one 13′,13′-dioxide]: the IC50 in assay [1] (setting [3]) stood at 0.083 nM; in assay [2] (setting [7]) it was 79 nM.

On to `CO[C@]1(CN2CC(=O)N3CCCC[C@@H]3C2)/C=C/C[C@H](C)[C@@H](C)S(=O)(=O)NC(=O)c2ccc3c(c2)N(C[C@@H]2CC[C@H]21)C[C@@]1(CCCc2cc(Cl)ccc21)CO3` [Example 149], for which the figures for the IC50 in assay [1] (setting [3]) and in assay [2] (setting [7]) were 0.128 nM and 119 nM, respectively.

As to `CO[C@@]1(C[C@H](O)c2ccccn2)/C=C/C[C@H](C)[C@@H](C)S(=O)(=O)NC(=O)c2ccc3c(c2)N(C[C@@H]2CC[C@H]21)C[C@@]1(CCCc2cc(Cl)ccc21)CO3` (single isomer, unassigned) [Example 100490], the IC50 came to 0.292 nM in assay [1] (setting [5]) and 511 nM in assay [2] (setting [8]).

Take `C[C@@H]1[C@@H](C)C/C=C/[C@](O)(c2cccnn2)[C@@H]2CC[C@H]2CN2C[C@@]3(CCCc4cc(Cl)ccc43)COc3ccc(cc32)C(=O)NS1(=O)=O` [Example 100349, (1S,3′R,6′R,7′R,8′E,11′S,12′R)-6-chloro-7′-hydroxy-11′,12′-dimethyl-7′-(3-pyridazinyl)-3,4-dihydro-2H,15′H-spiro[naphthalene-1,22′-[20]oxa[13]thia[1,14]diazatetracyclo [14.7.2.0~3,6~.0~19,24~]pentacosa[8,16,18,24]tetraen]-15′-one 13′,13′-dioxide]: the values for the IC50 in assay [1] (setting [5]) and in assay [2] (setting [6]) were 1.15 nM and 58 nM, respectively.

With `CCO[C@]1(CN2CCN3CCOC[C@@H]3C2)CCC[C@H](C)[C@@H](CCOC)S(=O)(=O)NC(=O)c2ccc3c(c2)N(C[C@@H]2CC[C@H]21)C[C@@]1(CCCc2cc(Cl)ccc21)CO3` [Example 518, (1S,3′R,6′R,7′R,11′S,12′R)-6-chloro-7′-ethoxy-7′-((9aS)-hexahydropyrazino[2,1-c][1,4]oxazin-8(1H)-ylmethyl)-12′-(2-methoxyethyl)-11′-methyl-3,4-dihydro-2H,15′H-spiro[naphthalene-1,22′-[20]oxa[13]thia[1,14]diazatetracyclo[14.7.2.0˜3,6˜.0˜19,24˜]pentacosa[16,18,24]trien]-15′-one 13′,13′-dioxide], the IC50 in assay [1] (setting [3]) is 0.164 nM; in assay [2] (setting [7]), 224 nM.

On to `CO[C@@H](C[C@]1(OC)/C=C/C[C@H](C)[C@@H](C)S(=O)(=O)NC(=O)c2ccc3c(c2)N(C[C@@H]2CC[C@H]21)C[C@@]1(CCCc2cc(Cl)ccc21)CO3)C1CC1` [Example 100462, (1S,3′R,6′R,7′S,8′E,11′S,12′R)-6-chloro-7′-((2S)-2-cyclopropyl-2-methoxyethyl)-7′-methoxy-11′,12′-dimethyl-3,4-dihydro-2H,15′H-spiro[naphthalene-1,22′-[20]oxa[13]thia[1,14]diazatetracyclo [14.7.2.0~3,6~.0~19,24~]pentacosa[8,16,18,24]tetraen]-15′-one 13′,13′-dioxide], for which the figures for the concentration for half-maximal inhibition (IC50) in assay [1] (setting [5]) and in assay [2] (setting [6]) were 0.304 nM and 652 nM, respectively.

As for `CO[C@]1(CN2C[C@@H](C)N(C(C)C)[C@@H](C)C2)/C=C/C[C@H](C)[C@@H](C)S(=O)(=O)NC(=O)c2ccc3c(c2)N(C[C@@H]2CC[C@H]21)C[C@@]1(CCCc2cc(Cl)ccc21)CO3` [Example 328, (1S,3′R,6′R,7′R,8′E,11′S,12′R)-6-chloro-7′-(((3R,5S)-3,5-dimethyl-4-(1-methylethyl)-1-piperazinyl)methyl)-7′-methoxy-11′,12′-dimethyl-3,4-dihydro-2H,15′H-spiro[naphthalene-1,22′-[20]oxa[13]thia[1,14]diazatetracyclo [14.7.2.0~3,6~.0~19,24~]pentacosa[8,16,18,24]tetraen]-15′-one 13′,13′-dioxide], the 50% inhibitory concentration (IC50) in assay [1] (setting [3]) was 0.087 nM; in assay [2] (setting [7]), 48 nM.

Regarding `CO[C@@]1(c2cnc(Cl)n2C)/C=C/C[C@H](C)[C@@H](C)S(=O)(=O)NC(=O)c2ccc3c(c2)N(C[C@@H]2CC[C@H]21)C[C@@]1(CCCc2cc(Cl)ccc21)CO3` (single isomer, unassigned) [Example 100558], the IC50 in assay [1] (setting [5]) stood at 0.086 nM; in assay [2] (setting [6]), 274 nM.

Consider `CC(C)[C@]1(O)/C=C/C[C@H](C)[C@@H](C)S(=O)(=O)NC(=O)c2ccc3c(c2)N(C[C@@H]2CC[C@H]21)C[C@@]1(CCCc2cc(Cl)ccc21)CO3` [Example 100208, (1S,3′R,6′R,7′S,8′E,11′S,12′R)-6-chloro-7′-hydroxy-11′,12′-dimethyl-7′-(2-propanyl)-3,4-dihydro-2H,15′H-spiro[naphthalene-1,22′-[20]oxa[13]thia[1,14]diazatetracyclo [14.7.2.0~3,6~.0~19,24~]pentacosa[8,16,18,24]tetraen]-15′-one 13′,13′-dioxide], for which the results for the IC50 in assay [1] (setting [5]) and in assay [2] (setting [6]) were 0.431 nM and 318 nM, respectively.

`C[C@@H]1[C@@H](C)CCC[C@]2(OCCS2)[C@@H]2CC[C@H]2CN2C[C@@]3(CCCc4cc(Cl)ccc43)COc3ccc(cc32)C(=O)NS1(=O)=O` (single isomer, unassigned) [Example 100116]: the IC50 in assay [1] (setting [5]) came to 3.78 nM; in assay [2] (setting [6]) it was 5940 nM.

`C[C@@H]1[C@@H](C)CCC[C@]2(CN3CCOC[C@H]3CO2)[C@@H]2CC[C@H]2CN2C[C@@]3(CCCc4cc(Cl)ccc43)COc3ccc(cc32)C(=O)NS1(=O)=O` (single isomer, unassigned) [Example 399]: the concentration for half-maximal inhibition (IC50) amounted to 0.401 nM in assay [1] (setting [3]) and 2100 nM in assay [2] (setting [4]).

With `C[C@@H]1[C@@H](C)CCC[C@]2(COC(=O)O2)[C@@H]2CC[C@H]2CN2C[C@@]3(CCCc4cc(Cl)ccc43)COc3ccc(cc32)C(=O)NS1(=O)=O` (single isomer, unassigned) [Example 100055], the IC50 in assay [1] (setting [5]) was 1.27 nM; in assay [2] (setting [6]) it was 4630 nM.

In the case of `CO[C@@]1(CN2CCN3CCS(=O)(=O)C[C@@H]3C2)/C=C/C[C@H](C)[C@@H](C)S(=O)(=O)NC(=O)c2ccc3c(c2)N(C[C@@H]2CC[C@H]21)C[C@@]1(CCCc2cc(Cl)ccc21)CO3` (single isomer, unassigned) [Example 231], the 50% inhibitory concentration (IC50) in assay [1] (setting [3]) came out at 0.061 nM; in assay [2] (setting [4]) it was 98 nM.

Values taken from patent US10821115B2, “Compounds that inhibit Mcl-1 protein” (priority 2017, dated 2020).
